Among the data in patent US10947210B2 (priority 2015, dated 2021) are IC50 values, retold here.

HCV RNA-dependent RNA polymerase (NS5B), sequence (P26663 2420-3010): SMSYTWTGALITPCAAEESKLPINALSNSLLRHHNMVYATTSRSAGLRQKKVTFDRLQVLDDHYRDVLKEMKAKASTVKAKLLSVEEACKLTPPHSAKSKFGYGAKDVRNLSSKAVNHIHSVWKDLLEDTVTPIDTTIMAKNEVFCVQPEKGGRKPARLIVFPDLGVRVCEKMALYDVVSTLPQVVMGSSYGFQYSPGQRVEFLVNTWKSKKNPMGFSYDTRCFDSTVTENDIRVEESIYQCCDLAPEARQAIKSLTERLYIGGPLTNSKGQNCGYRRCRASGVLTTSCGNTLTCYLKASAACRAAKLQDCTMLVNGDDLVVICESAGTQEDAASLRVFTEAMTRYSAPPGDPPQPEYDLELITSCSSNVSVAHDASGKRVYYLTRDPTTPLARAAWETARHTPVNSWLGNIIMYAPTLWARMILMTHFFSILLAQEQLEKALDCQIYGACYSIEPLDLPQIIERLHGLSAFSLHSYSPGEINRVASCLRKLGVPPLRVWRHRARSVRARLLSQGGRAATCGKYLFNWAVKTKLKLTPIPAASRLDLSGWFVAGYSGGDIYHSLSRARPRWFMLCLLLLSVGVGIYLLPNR

In the experiment the target is HCV RNA-dependent RNA polymerase (NS5B) (Hepatitis C virus genotype 1b (isolate BK) (HCV), UniProt P26663). The experiment in a line: RNA-Dependent RNA HCV NS5B (polymerase) Assay and IC50 Determination. Format: biochemical. The conditions noted are these: purified HCV NS5B polymerase, polyA:U16 substrate, 32P-UTP incorporation; read-out: IC50. On the procedure:
RNA-Dependent RNA HCV NS5B (polymerase) Assay and IC50 Determination.
The reaction mixtures consisted of 50 mM Hepes-KOH, pH 7.5, 5 mM MgCl2, 5 mM DTT, 2% glycerol, 0.01% Triton® X-100, 0.5 uM polyA:U16 substrate, purified HCV RNA-dependent RNA polymerase, 10 μM UTP, and ^32P-UTP (Perkin Elmer). The reaction mixtures incubated at 30° C. for 60 minutes, and then filtered through Zeta probe membrane (BioRad). The filter was washed with 5×SSC (75 mM sodium citrate, pH 7 and 750 mM NaCl), and the radiolabeled RNA products were quantitated by microbeta (Perkin Elmer). For IC50 determination, different concentrations of inhibitors were added to the polymerase reaction mixtures, and incubated at 37° C. for 60 minutes. IC50 values were determined using GraFit (Erithaus software).
Table 1 presents IC50 data obtained using the biochemical assay to test representative compounds. Data are presented as follows: “+++” means <0.1 μM; “++” means ≥0.1 μM but <1.0 μM; “+” means ≥1.0 μM.
Regarding `CNC(=O)c1c(-c2ccc(F)cc2)oc2cc(N(CCOCCOCCOC(C)(C)C(=O)OC(C)(C)C)S(C)(=O)=O)c(C3CC3)cc12` [Compound 26-6B, 2-{2-[2-(2-{[5-Cyclopropyl-2-(4-fluoro-phenyl)-3-methylcarbamoyl-benzofuran-6-yl]-methanesulfonyl-amino}-ethoxy)-ethoxy]-ethoxy}-2-methyl-propionic Acid Tert-butyl Ester], the IC50 – broadly, the concentration needed to halve the response being measured – is > 1000 nM.

For `CNC(=O)c1c(-c2ccc(F)cc2)oc2cc(N(CCOCCCCCOC(C)C(=O)O)S(C)(=O)=O)c(C3CC3)cc12` (stereo not drawn) [Compound 27-9B, 2-[5-(2-{[5-Cyclopropyl-2-(4-fluoro-phenyl)-3-methylcarbamoyl-benzofuran-6-yl]-methanesulfonyl-amino}-ethoxy)-pentyloxy]-propionic Acid], the IC50 was in the range of 100 to 1000 nM.

Turning to `CCOC(=O)c1ccc(OCCOCCOCCN(c2cc3oc(-c4ccc(F)cc4)c(C(=O)NC)c3cc2C2CC2)S(C)(=O)=O)cc1` [Compound 14-6C, 4-{2-[2-(2-{[5-Cyclopropyl-2-(4-fluoro-phenyl)-3-methylcarbamoyl-benzofuran-6-yl]-methanesulfonyl-amino}-ethoxy)-ethoxy]-ethoxy}-benzoic Acid Ethyl Ester], the IC50 is > 1000 nM.

For the molecule `CCOC(=O)C(C)OCCOCCOCCN(c1cc2oc(-c3ccc(F)cc3)c(C(=O)NC)c2cc1C1CC1)S(C)(=O)=O` (stereo not drawn) [Compound 30-2, 2-{2-[2-(2-{[5-Cyclopropyl-2-(4-fluoro-phenyl)-3-methylcarbamoyl-benzofuran-6-yl]-methanesulfonyl-amino}-ethoxy)-ethoxy]-ethoxy}-propionic acid ethyl ester], the IC50 was > 1000 nM.

`CNC(=O)c1c(-c2ccc(F)cc2)oc2cc(N(CCOCCSC(C)=O)S(C)(=O)=O)c(C3CC3)cc12` [Compound 21-5, Thioacetic Acid S-[2-(2-{[5-cyclopropyl-2-(4-fluoro-phenyl)-3-methylcarbamoyl-benzofuran-6-yl]-methanesulfonyl-amino}-ethoxy)-ethyl] Ester]: the concentration for half-maximal inhibition (IC50) is < 100 nM.

As for `CNC(=O)c1c(-c2ccc(F)cc2)oc2cc(N(CCOCCOCCOCCOCc3ccc(C(=O)/C=C(\O)C(=O)O)cc3)S(C)(=O)=O)c(C3CC3)cc12` [Compound 02-10H, 4-[4-(2-{2-[2-(2-{[5-Cyclopropyl-2-(4-fluoro-phenyl)-3-methylcarbamoyl-benzofuran-6-yl]-methanesulfonyl-amino}-ethoxy)-ethoxy]-ethoxy}-ethoxymethyl)-phenyl]-2-hydroxy-4-oxo-but-2-enoic Acid], the IC50 is > 1000 nM.

Consider `CNC(=O)c1c(-c2ccc(F)cc2)oc2cc(N(CCNC(=O)CNC(=O)c3cccc(CCCC(=O)O)c3)S(C)(=O)=O)c(C3CC3)cc12` [Compound 07-10, 4-(3-{[(2-{[5-Cyclopropyl-2-(4-fluoro-phenyl)-3-methylcarbamoyl-benzofuran-6-yl]-methanesulfonyl-amino}-ethylcarbamoyl)-methyl]-carbamoyl}-phenyl)-butyric Acid], for which the IC50 is > 1000 nM.

`CNC(=O)c1c(-c2ccc(F)cc2)oc2cc(N(CCOCCOCCOCCOCCOCc3ccc(C(=O)/C=C(\O)C(=O)O)cc3)S(C)(=O)=O)c(C3CC3)cc12` [Compound 02-10I, 4-{4-[2-(2-{2-[2-(2-{[5-Cyclopropyl-2-(4-fluoro-phenyl)-3-methylcarbamoyl-benzofuran-6-yl]-methanesulfonyl-amino}-ethoxy)-ethoxy]-ethoxy}-ethoxy)-ethoxymethyl]-phenyl}-2-hydroxy-4-oxo-but-2-enoic Acid]: the IC50 was > 1000 nM.

For the molecule `CNC(=O)c1c(-c2ccc(F)cc2)oc2cc(N(CCCCCOCc3ccc(C(=O)OC)cc3)S(C)(=O)=O)c(C3CC3)cc12` [Compound 16-6, 4-(5-{[5-Cyclopropyl-2-(4-fluoro-phenyl)-3-methylcarbamoyl-benzofuran-6-yl]-methanesulfonyl-amino}-pentyloxymethyl)-benzoic Acid Methyl Ester], the IC50 was > 1000 nM.

On to `CNC(=O)c1c(-c2ccc(F)cc2)oc2cc(N(CCOCCOCCOCc3ccc(C(=O)O)cc3)S(C)(=O)=O)c(C3CC3)cc12` [Compound 06-7E, 4-{2-[2-(2-{[5-Cyclopropyl-2-(4-fluoro-phenyl)-3-methylcarbamoyl-benzofuran-6-yl]-methanesulfonyl-amino}-ethoxy)-ethoxy]-ethoxymethyl}-benzoic Acid], for which the IC50 was 100 to 1000 nM.

`CNC(=O)c1c(-c2ccc(F)cc2)oc2cc(N(CCOCCOCCCc3ccc(C(=O)O)cc3)S(C)(=O)=O)c(C3CC3)cc12` [Compound 12-7C, 4-{3-[2-(2-{[5-Cyclopropyl-2-(4-fluoro-phenyl)-3-methylcarbamoyl-benzofuran-6-yl]-methanesulfonyl-amino}-ethoxy)-ethoxy]-propyl}-benzoic Acid]: the IC50 is 100 to 1000 nM.

Take `CNC(=O)c1c(-c2ccc(F)cc2)oc2cc(N(CCOCCOCCOC(C)(C)C(=O)O)S(C)(=O)=O)c(C3CC3)cc12` [Compound 26-7B, 2-{2-[2-(2-{[5-Cyclopropyl-2-(4-fluoro-phenyl)-3-methylcarbamoyl-benzofuran-6-yl]-methanesulfonyl-amino}-ethoxy)-ethoxy]-ethoxy}-2-methyl-propionic Acid]: the IC50 was in the range of 100 to 1000 nM.

In the case of `CNC(=O)c1c(-c2ccc(F)cc2)oc2cc(N(CCOCCOCCCc3cccc(C(=O)CC(=O)C(=O)O)c3)S(C)(=O)=O)c(C3CC3)cc12` [Compound 30-8, 4-(3-{3-[2-(2-{[5-Cyclopropyl-2-(4-fluoro-phenyl)-3-methylcarbamoyl-benzofuran-6-yl]-methanesulfonyl-amino}-ethoxy)-ethoxy]-propyl}-phenyl)-2,4-dioxo-butyric acid], the IC50 was > 1000 nM.

In the case of `CNC(=O)c1c(-c2ccc(F)cc2)oc2cc(N(CCOCCOCCOCCOCCOCCOCc3ccc(C(=O)O)cc3)S(C)(=O)=O)c(C3CC3)cc12` [Compound 30-13, 4-{2-[2-(2-{2-[2-(2-{[5-Cyclopropyl-2-(4-fluoro-phenyl)-3-methylcarbamoyl-benzofuran-6-yl]-methanesulfonyl-amino}-ethoxy)-ethoxy]-ethoxy}-ethoxy)-ethoxy]-ethoxymethyl}-benzoic acid], the half-inhibitory concentration (IC50) was > 1000 nM.

For the molecule `CNC(=O)c1c(-c2ccc(F)cc2)oc2cc(N(CC(=O)NC3(C(=O)NCc4cccc(C(=O)C=C(O)C(=O)O)c4)CC3)S(C)(=O)=O)c(C3CC3)cc12` [Compound 09-14D, 4-[3-({[1-(2-{[5-Cyclopropyl-2-(4-fluoro-phenyl)-3-methylcarbamoyl-benzofuran-6-yl]-methanesulfonyl-amino}-acetylamino)-cyclopropanecarbonyl]-amino}-methyl)-phenyl]-2-hydroxy-4-oxo-but-2-enoic Acid], the IC50 is > 1000 nM.

As to `CNC(=O)c1c(-c2ccc(F)cc2)oc2cc(N(CCOCCOCc3ccc(C(=O)O)cc3C)S(C)(=O)=O)c(C3CC3)cc12` [Compound 18-10B, 4-[2-(2-{[5-Cyclopropyl-2-(4-fluoro-phenyl)-3-methylcarbamoyl-benzofuran-6-yl]-methanesulfonyl-amino}-ethoxy)-ethoxymethyl]-3-methyl-benzoic Acid], the half-maximal inhibitory concentration (IC50) is < 100 nM.

With `CNC(=O)c1c(-c2ccc(F)cc2)oc2cc(N(CCOCCOCc3ccc(C(=O)OC)c([N+](=O)[O-])c3)S(C)(=O)=O)c(C3CC3)cc12` [Compound 29-7, 4-[2-(2-{[5-Cyclopropyl-2-(4-fluoro-phenyl)-3-methylcarbamoyl-benzofuran-6-yl]-methanesulfonyl-amino}-ethoxy)-ethoxymethyl]-2-nitro-benzoic Acid Methyl Ester], the IC50 was in the range of 100 to 1000 nM.

`CNC(=O)c1c(-c2ccc(F)cc2)oc2cc(N(CCOCCOCCCc3cccc(C(=O)O)c3)S(C)(=O)=O)c(C3CC3)cc12` [Compound 12-7B, 3-{3-[2-(2-{[5-Cyclopropyl-2-(4-fluoro-phenyl)-3-methylcarbamoyl-benzofuran-6-yl]-methanesulfonyl-amino}-ethoxy)-ethoxy]-propyl}-benzoic Acid]: the half-maximal inhibitory concentration (IC50) was < 100 nM.

Consider `CNC(=O)c1c(-c2ccc(F)cc2)oc2cc(N(CCCCOCCc3ccc(C(=O)OC)cc3)S(C)(=O)=O)c(C3CC3)cc12` [Compound 13-7C, 4-[2-(4-{[5-Cyclopropyl-2-(4-fluoro-phenyl)-3-methylcarbamoyl-benzofuran-6-yl]-methanesulfonyl-amino}-butoxy)-ethyl]-benzoic Acid Methyl Ester], for which the IC50 fell in the range of 100 to 1000 nM.

With `CNC(=O)c1c(-c2ccc(F)cc2)oc2cc(N(CCOCCOCCOCc3ccccc3C(=O)O)S(C)(=O)=O)c(C3CC3)cc12` [Compound 06-7D, 2-{2-[2-(2-{[5-Cyclopropyl-2-(4-fluoro-phenyl)-3-methylcarbamoyl-benzofuran-6-yl]-methanesulfonyl-amino}-ethoxy)-ethoxy]-ethoxymethyl}-benzoic Acid], the IC50 fell in the range of 100 to 1000 nM.

As for `CCOC(=O)c1cccc(CCOCCOCCN(c2cc3oc(-c4ccc(F)cc4)c(C(=O)NC)c3cc2C2CC2)S(C)(=O)=O)c1` [Compound 11-5B, 3-{2-[2-(2-{[5-Cyclopropyl-2-(4-fluoro-phenyl)-3-methylcarbamoyl-benzofuran-6-yl]-methanesulfonyl-amino}-ethoxy)-ethoxy]-ethyl}-benzoic Acid Ethyl Ester], the IC50 was > 1000 nM.
